# Patent publication US20230053540A1, “TREATMENT OF LIVER INJURY” (Massachusetts Institute of Technology, priority 2019, published 2023)
# Tested on: hepatocytes
# Assay: Seq-Well scRNA-Seq of hepatocytes after APAP overdose (signature scores, DEG vs untreated)
# Assay type: in vivo, mouse
# Details: APAP vs UT
compound,measurement,setting,value
"CC(=O)Nc1ccc(O)cc1 [APAP, acetaminophen]",Ndufb4 logFC,,−0.4537
same,Ndufb6 logFC,,−0.5077
same,Ndufb9 logFC,,−0.5038
same,Ndufb11 logFC,,−0.5097
same,Ndufs6 logFC,,−0.5379
same,Nedd4 logFC,,0.3774
same,Nit2 logFC,,−0.4859
same,Nolc1 logFC,,0.4722
same,Nop56 logFC,,0.2657
same,Nr5a2 logFC,,0.322
same,Nrp1 logFC,,0.3608
same,Oaz1 logFC,,−0.4185
same,Orm2 logFC,,0.2715
same,Pah logFC,,−0.5221
same,Park7 logFC,,−0.2602
same,Pdcd4 logFC,,0.4882
same,Pdia4 logFC,,0.4882
same,Pdia6 logFC,,−0.39
same,Pemt logFC,,−0.5512
same,Pfkfb2 logFC,,0.29
same,Picalm logFC,,0.7545
same,Pik3c2a logFC,,0.3249
same,Plec logFC,,0.4675
same,Plg logFC,,0.2617
same,Ppan logFC,,0.2724
same,Ppib logFC,,−0.5897
same,Ppm1k logFC,,−0.5584
same,Ppp1r3b logFC,,−0.4027
same,Ppp2r5a logFC,,−0.2605
same,Prg4 logFC,,0.4306
same,Prkd3 logFC,,0.3665
same,Pten logFC,,0.3559
same,Ptms logFC,,0.2678
same,Ptpn1 logFC,,0.4163
same,Ptpn12 logFC,,0.3342
same,Qdpr logFC,,−0.5236
same,Qsox1 logFC,,0.3424
same,Rab1 logFC,,0.3526
same,Rad54l2 logFC,,0.3887
same,Ranbp2 logFC,,0.5985
same,Rarres2 logFC,,−0.5522
same,Rdh16 logFC,,0.2692
same,Rgs2 logFC,,0.3957
same,Rnd3 logFC,,0.3655
same,Rock2 logFC,,0.5941
same,Rora logFC,,0.6444
same,Rpl32 logFC,,−0.5322
same,Rpl36a1 logFC,,−0.4755
same,Rplp1 logFC,,−0.5047
same,Rpn1 logFC,,0.4124
same,Rps2 logFC,,−0.3879
same,Rrbp1 logFC,,0.3069
same,S100a1 logFC,,−0.3762
same,Saa4 logFC,,−0.571
same,Sar1b logFC,,−0.3176
same,Sat1 logFC,,0.6887
same,Sc5d logFC,,−0.5009
same,Sdad1 logFC,,0.3124
same,Sdc3 logFC,,0.3598
same,Sdc4 logFC,,0.6196
same,Sdhd logFC,,−0.3353
same,Sds logFC,,−0.407
same,Sec61a1 logFC,,0.3139
same,Selenbp1 logFC,,−0.4937
same,Serp1 logFC,,0.3124
same,Serpina3c logFC,,−0.4725
same,Sfxn1 logFC,,0.3049
same,Slc2a2 logFC,,−0.3123
same,Slc3a1 logFC,,0.341
same,Slc10a2 logFC,,0.299
same,Slc20a1 logFC,,0.3572
same,Slc37a4 logFC,,0.2683
same,Slc38a3 logFC,,−0.4098
same,Slc38a4 logFC,,0.2637
same,Slco1a1 logFC,,−0.3628
same,Son logFC,,0.5429
same,Sorl1 logFC,,0.3067
same,Sparcl1 logFC,,−0.2536
same,Spcs3 logFC,,0.3942
same,Spred1 logFC,,0.3884
same,Sqstm1 logFC,,0.7432
same,Ssr1 logFC,,0.3278
same,Ssr4 logFC,,−0.5076
same,St3gal1 logFC,,0.5287
same,Stard4 logFC,,0.3515
same,Stard10 logFC,,−0.3383
same,Stat3 logFC,,0.7154
same,Stk40 logFC,,0.5364
same,Tacc2 logFC,,0.3293
same,Tatdn2 logFC,,0.3733
same,Tbc1d15 logFC,,0.4886
same,Tcerg1 logFC,,0.3575
same,Thrsp logFC,,−0.725
same,Tiparp logFC,,0.5456
same,Tjp2 logFC,,0.4115
same,Tlcd2 logFC,,−0.5945
same,Tm4sf4 logFC,,0.5126
same,Tmed7 logFC,,0.3868
same,Tmem30a logFC,,0.3328
same,Tmem87b logFC,,0.4344
same,Tmem106b logFC,,0.2802
same,Tmem256 logFC,,−0.5185
same,Tnfrsf1a logFC,,0.5996
same,Tra2a logFC,,0.7123
same,Tram1 logFC,,0.4111
same,Trip12 logFC,,0.3283
same,Tsc22d2 logFC,,0.3911
same,Tsku logFC,,0.3676
same,Tsr1 logFC,,0.3603
same,Ttc39c logFC,,−0.6363
same,Tubb2a logFC,,0.7494
same,Ubxn4 logFC,,0.2503
same,Ucp2 logFC,,0.2612
same,Ugdh logFC,,0.6331
same,Uggt1 logFC,,0.2845
same,Ugt2a3 logFC,,−0.3334
same,Uox logFC,,−0.5531
same,Upb1 logFC,,−0.4187
same,Upp2 logFC,,−0.6903
same,Uqcr10 logFC,,−0.4519
same,Uqcr11 logFC,,−0.6031
same,Uqcrh logFC,,−0.4292
same,Usmg5 logFC,,−0.4305
same,Uso1 logFC,,0.3881
same,Usp4 logFC,,0.3247
same,Usp9x logFC,,0.4076
same,Vkorc1 logFC,,−0.4042
same,Vsig4 logFC,,0.4833
same,Wfdc17 logFC,,0.4867
same,Xbp1 logFC,,0.6032
same,Ywhag logFC,,0.5824
same,Zfp683 logFC,,−0.4217
same,mmu-mir-6236 logFC,,0.7875
same,mt-Atp6 logFC,,−0.5737
same,mt-Nd6 logFC,,−0.4779
same,mt-Tm logFC,,0.2847
same,mt-Tq logFC,,0.2879
same,15-Sep logFC,composite DEG,−0.4092
same,0610005C13Rik logFC,composite DEG,−0.4251
same,0610011F06Rik logFC,composite DEG,−0.3037
same,1100001G20Rik logFC,composite DEG,−0.8516
same,1110001J03Rik logFC,composite DEG,−0.4328
same,1500011K16Rik logFC,composite DEG,−0.3296
same,1500017E21Rik logFC,composite DEG,−0.461
same,1700017B05Rik logFC,composite DEG,0.3307
same,1810022K09Rik logFC,composite DEG,−0.3001
same,2010003K11Rik logFC,composite DEG,0.5884
same,2010107E04Rik logFC,composite DEG,−0.3182
same,2410015M20Rik logFC,composite DEG,−0.4021
same,2810007J24Rik logFC,composite DEG,−0.9143
same,AW112010 logFC,composite DEG,−0.2981
same,Aadat logFC,composite DEG,−0.3186
same,Aass logFC,composite DEG,0.4775
same,Abca6 logFC,composite DEG,0.3328
same,Abcb4 logFC,composite DEG,0.4947
same,Abcc3 logFC,composite DEG,0.3638
same,Abcd2 logFC,composite DEG,0.2851
same,Abcd3 logFC,composite DEG,−0.2718
same,Abhd14b logFC,composite DEG,−0.3937
same,Acad11 logFC,composite DEG,0.3571
same,Acadl logFC,composite DEG,0.3162
same,Acads logFC,composite DEG,−0.3242
same,Acat1 logFC,composite DEG,0.3689
same,Acbd5 logFC,composite DEG,−0.3952
same,Acly logFC,composite DEG,0.3288
same,Aco2 logFC,composite DEG,0.2859
same,Acot1 logFC,composite DEG,0.3078
same,Acot12 logFC,composite DEG,0.3078
same,Acsl1 logFC,composite DEG,−0.3703
same,Acsm1 logFC,composite DEG,−0.3692
same,Actb logFC,composite DEG,1.06
same,Actn4 logFC,composite DEG,0.3124
same,Acy3 logFC,composite DEG,−0.3137
same,Adamts1 logFC,composite DEG,0.2826
same,Adck3 logFC,composite DEG,−0.8761
same,Adh1 logFC,composite DEG,−1.255
same,Adtrp logFC,composite DEG,−0.3664
same,Aff4 logFC,composite DEG,0.6163
same,Agpat2 logFC,composite DEG,−0.2982
same,Agpat6 logFC,composite DEG,0.3963
same,Agpat9 logFC,composite DEG,0.327
same,Agxt logFC,composite DEG,−0.2584
same,Ahcy logFC,composite DEG,−0.563
same,Ak2 logFC,composite DEG,−0.3451
same,Akap11 logFC,composite DEG,0.3464
same,Akap13 logFC,composite DEG,0.4953
same,Akr1a1 logFC,composite DEG,−0.3269
same,Akr1c19 logFC,composite DEG,−0.2727
same,Akr1d1 logFC,composite DEG,0.361
same,Alad logFC,composite DEG,−0.4206
same,Aldh4a1 logFC,composite DEG,−0.2907
same,Aldh9a1 logFC,composite DEG,0.4159
same,Aldob logFC,composite DEG,0.3655
same,Amacr logFC,composite DEG,−0.4136
same,Amy1 logFC,composite DEG,0.4327
same,Anapc13 logFC,composite DEG,−0.3642
same,Ankrd11 logFC,composite DEG,0.4156
same,Anp32a logFC,composite DEG,−0.317
same,Apc logFC,composite DEG,0.6067
same,Apcs logFC,composite DEG,0.7584
same,Aplp2 logFC,composite DEG,0.3394
same,Apoa4 logFC,composite DEG,1.368
